Assay results taken from patent publication US20030032640A1, “Novel composition” (priority 2000, published 2003).
Where a name gives a salt, the structure may show the parent alone.

Columns and labels:
[1] = target: 5HT4 receptor (Homo sapiens, UniProt Q13639); conditions: from the cited literature; cited from earlier work
[2] = Cohesiveness and flowability of drug substance and granules; format: physicochemical; conditions: HCl salt crystallised from ethanol/IMS with C5-C10 hydrocarbon
Source text: The second aspect of the newly recognised problem, is the discovery that the SB 207266 HCl salt produced by these processes is very cohesive and has poor flowability/flow characteristics.

[3] = Bulk density of the small-particle size HCl salt; format: physicochemical; conditions: densifies on addition of water
Source text: The fourth aspect of the newly recognised problem is that the small-particle size SB-207266 HCl salt has a low bulk density, densifying on the addition of water. This means that less material can be added to a mixer of fixed volume, leading to a less efficient manufacturing process as large volumes of equipment have to be used for relatively small volumes of drug (smaller throughput in plant).

[4] = Particle size (DV 90/50/10) of batches of SB-207266-A made by the Description 1 process; format: physicochemical; conditions: for DV 10 / DV 50 / DV 90: individual batch, hydrochloride; for DV 10: 10% by volume of the material is less than this size; for DV 50: 50% by volume of the material is less than this size; for DV 90: 90% by volume of the material is less than this size
Source text: The first aspect of the newly recognised problem is that such processes produce the SB 207266 hydrochloride salt in the form of particles of extremely small particle size.
DV 90, DV 50 and DV 10 respectively mean that 90%, 50% and 10% by volume of the material is less than the micron size specified.

Sequence of 5HT4 receptor (Q13639 whole entry): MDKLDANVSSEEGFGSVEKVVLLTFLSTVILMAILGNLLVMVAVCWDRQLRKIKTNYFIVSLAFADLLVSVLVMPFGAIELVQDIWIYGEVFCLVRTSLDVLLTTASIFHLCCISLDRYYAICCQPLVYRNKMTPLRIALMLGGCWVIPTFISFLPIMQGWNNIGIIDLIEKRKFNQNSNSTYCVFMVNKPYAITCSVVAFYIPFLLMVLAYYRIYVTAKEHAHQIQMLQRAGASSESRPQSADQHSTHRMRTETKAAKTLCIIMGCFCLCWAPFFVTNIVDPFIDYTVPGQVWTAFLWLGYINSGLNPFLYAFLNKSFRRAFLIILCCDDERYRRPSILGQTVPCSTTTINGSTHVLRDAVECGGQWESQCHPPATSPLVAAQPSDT

**Q.** Which “selectivity for the 5HT4 receptor over other 5HT receptors” value [1] does the source give for `CCCCN1CCC(CNC(=O)c2c3n(c4ccccc24)CCCO3)CC1` [SB 207266, N-[(1-^nbutyl-4-piperidinyl)methyl]-3,4-dihydro-2H-[1,3]oxazino[3,2-a]indole-10-carboxamide] here?
**A.** highly selective

**Q.** With `CCCCN1CCC(CNC(=O)c2c3n(c4ccccc24)CCCO3)CC1` [SB-207266-A, N-[(1-butyl-4-piperidinyl)methyl]-3,4-dihydro-2H-[1,3]-oxazino[3,2-α]indole-10-carboxamide hydrochloride] as the compound, how does the cohesiveness [2] read?
**A.** very cohesive

**Q.** What about the flowability/flow characteristics [2] of the same compound?
**A.** poor

**Q.** And the bulk density [3]?
**A.** low

**Q.** What about the “DV 10, average of batches” value ([4]; average of the five batches) of the same compound?
**A.** 1.5 μm

**Q.** And the “DV 50, average of batches” value ([4]; average of the five batches)?
**A.** 5.8 μm

**Q.** And the “DV 90, average of batches” value ([4]; average of the five batches)?
**A.** 14.4 μm

**Q.** What about the “DV 10” value ([4]; listed as BDC-G-02C) of the same compound?
**A.** 1.5 μm

**Q.** And the “DV 10” value ([4]; listed as BDC-G-03C)?
**A.** 1.8 μm

**Q.** And the “DV 10” value ([4]; listed as BDC-G-04C)?
**A.** 1.4 μm

**Q.** What about the “DV 10” value ([4]; listed as BDC-G-05C) of the same compound?
**A.** 1.5 μm

**Q.** What about the “DV 10” value ([4]; listed as BDC-H-01C) of the same compound?
**A.** 1.4 μm

**Q.** What about the “DV 50” value ([4]; listed as BDC-G-02C) of the same compound?
**A.** 5.7 μm

**Q.** What about the “DV 50” value ([4]; listed as BDC-G-03C) of the same compound?
**A.** 6.8 μm

**Q.** What about the “DV 50” value ([4]; listed as BDC-G-04C) of the same compound?
**A.** 5.3 μm

**Q.** What about the “DV 50” value ([4]; listed as BDC-G-05C) of the same compound?
**A.** 5.8 μm

**Q.** And the “DV 50” value ([4]; listed as BDC-H-01C)?
**A.** 5.3 μm

**Q.** And the “DV 90” value ([4]; listed as BDC-G-02C)?
**A.** 13.8 μm

**Q.** What about the “DV 90” value ([4]; listed as BDC-G-03C) of the same compound?
**A.** 16.4 μm

**Q.** And the “DV 90” value ([4]; listed as BDC-G-04C)?
**A.** 14.4 μm

**Q.** What about the “DV 90” value ([4]; listed as BDC-G-05C) of the same compound?
**A.** 14.6 μm

**Q.** What about the “DV 90” value ([4]; listed as BDC-H-01C) of the same compound?
**A.** 12.8 μm
